Experimental data reported in ChEMBL document CHEMBL1201862, “PubChem BioAssay data set” (2004).
One block for each compound: values may come before it. Activity calls are given as the source filed them.

Legend:
[1] = inhibitors of intracellular T. cruzi replication, confirmation, NIH3T3 host cells, beta-gal luminescence (AID 2044); format: functional, cell-based;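 further: intracellular parasites grown in NIH/3T3 mouse fibroblasts as host cells; luminescent beta-galactosidase reporter signal from transgenic T. cruzi replicating inside host cells; inhibitors lower the luminescence signal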
[2] = cytotoxicity toward NIH3T3 fibroblasts, dose response, counter-screen, cell-based, ATP luminescence, mouse fibroblasts (AID 2010); format: functional;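 further: cells exposed to compound for about 90 hours before reading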
Cytochrome P450 2C19 = Cytochrome P450 2C19 (Homo sapiens, UniProt P33261); assay: Cytochrome panel assay with activity outcomes. Panel member name: p450-cyp2c19 Compounds with AC50 equal or less than 10 uM are considered active; format: functional
Cytochrome P450 2C19, sequence (P33261 whole entry): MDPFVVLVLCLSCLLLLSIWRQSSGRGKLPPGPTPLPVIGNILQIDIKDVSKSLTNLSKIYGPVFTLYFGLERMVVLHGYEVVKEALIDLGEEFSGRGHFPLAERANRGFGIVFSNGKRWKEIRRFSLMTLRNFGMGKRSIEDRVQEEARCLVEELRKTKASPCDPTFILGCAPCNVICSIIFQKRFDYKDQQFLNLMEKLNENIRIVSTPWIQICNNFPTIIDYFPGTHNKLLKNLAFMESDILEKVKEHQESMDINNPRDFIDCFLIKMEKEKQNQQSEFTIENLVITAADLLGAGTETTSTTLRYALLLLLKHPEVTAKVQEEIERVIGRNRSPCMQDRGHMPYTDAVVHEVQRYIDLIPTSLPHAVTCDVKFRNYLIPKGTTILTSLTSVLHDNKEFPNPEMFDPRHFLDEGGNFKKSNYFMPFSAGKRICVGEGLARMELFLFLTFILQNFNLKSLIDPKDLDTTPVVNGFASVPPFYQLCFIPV

Cytochrome P450 2C9 = Cytochrome P450 2C9 (Homo sapiens, UniProt P11712)
Cytochrome P450 2C9, sequence (P11712 whole entry): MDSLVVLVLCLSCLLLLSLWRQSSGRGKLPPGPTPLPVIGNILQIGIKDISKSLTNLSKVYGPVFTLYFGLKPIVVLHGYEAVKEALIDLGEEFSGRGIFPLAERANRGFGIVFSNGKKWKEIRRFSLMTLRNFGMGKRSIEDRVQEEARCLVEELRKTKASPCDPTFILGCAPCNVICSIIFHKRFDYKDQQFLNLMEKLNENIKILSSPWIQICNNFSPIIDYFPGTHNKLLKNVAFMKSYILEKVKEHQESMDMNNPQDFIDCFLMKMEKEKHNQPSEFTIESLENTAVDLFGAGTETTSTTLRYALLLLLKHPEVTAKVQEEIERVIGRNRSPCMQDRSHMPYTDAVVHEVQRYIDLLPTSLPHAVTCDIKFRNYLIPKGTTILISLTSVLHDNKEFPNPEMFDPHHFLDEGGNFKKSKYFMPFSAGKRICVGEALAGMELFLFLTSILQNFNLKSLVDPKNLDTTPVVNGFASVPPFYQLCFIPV

Cytochrome P450 1A2 = target: T1, Cytochrome P450 1A2 (Homo sapiens, UniProt P05177);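 further: PubChem cytochrome P450 panel assay, CYP1A2 panel member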
T1 sequence (P05177 whole entry): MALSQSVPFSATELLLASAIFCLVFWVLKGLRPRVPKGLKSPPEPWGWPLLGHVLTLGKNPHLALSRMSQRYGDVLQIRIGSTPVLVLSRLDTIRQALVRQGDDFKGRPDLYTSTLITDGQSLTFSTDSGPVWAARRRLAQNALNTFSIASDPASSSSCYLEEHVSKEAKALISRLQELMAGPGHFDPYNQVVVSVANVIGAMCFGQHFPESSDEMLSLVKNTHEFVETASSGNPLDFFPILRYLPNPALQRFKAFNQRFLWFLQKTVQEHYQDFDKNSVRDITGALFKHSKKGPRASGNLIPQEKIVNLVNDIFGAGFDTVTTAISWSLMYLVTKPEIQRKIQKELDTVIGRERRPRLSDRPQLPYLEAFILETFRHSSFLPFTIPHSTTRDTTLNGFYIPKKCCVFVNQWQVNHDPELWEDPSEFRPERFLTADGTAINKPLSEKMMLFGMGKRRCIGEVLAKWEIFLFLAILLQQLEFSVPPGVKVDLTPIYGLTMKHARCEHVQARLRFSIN

Cytochrome P450 2D6 = Cytochrome P450 2D6 (Homo sapiens, UniProt P10635);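 further: CYP2D6 member of a cytochrome P450 panel assay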
Cytochrome P450 2D6, sequence (P10635 whole entry): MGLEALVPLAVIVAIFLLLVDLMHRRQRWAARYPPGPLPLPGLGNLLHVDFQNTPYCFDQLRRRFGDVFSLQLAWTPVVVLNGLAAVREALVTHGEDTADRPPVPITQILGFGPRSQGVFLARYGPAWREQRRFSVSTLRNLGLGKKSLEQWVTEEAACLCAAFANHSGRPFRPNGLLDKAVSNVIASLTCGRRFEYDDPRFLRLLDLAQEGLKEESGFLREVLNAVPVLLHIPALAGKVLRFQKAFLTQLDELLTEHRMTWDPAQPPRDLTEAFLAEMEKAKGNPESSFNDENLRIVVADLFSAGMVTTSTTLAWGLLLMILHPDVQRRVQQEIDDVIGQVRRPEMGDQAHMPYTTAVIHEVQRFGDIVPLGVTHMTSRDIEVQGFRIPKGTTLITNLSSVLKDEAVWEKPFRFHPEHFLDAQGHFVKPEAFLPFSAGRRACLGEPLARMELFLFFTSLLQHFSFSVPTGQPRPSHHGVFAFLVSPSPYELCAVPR

Streptococcus = assay: Group A Streptococcus viability loss, dose response, counter-screen for streptokinase expression inhibitor project, luminescence, BacTiterGlo (AID 1915); format: functional, organism-based;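 further: potency for reduction of bacterial viability or growth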
[3] = tested on: Streptococcus sp. 'group A'; assay: growth inhibition of control SK(-) GAS strain, dose response, counter-screen for streptokinase expression inhibitor project, luminescence, kanamycin, BacTiterGlo, confirmation (AID 1900); format: functional, organism-based

- AC50 (Cytochrome P450 2C19; read-out: AC50): 2.51 µM (inconclusive)
Compound: CCOc1cc(NC(=O)CC(C)C)c(OCC)cc1N=C(S)Nc1cccc(C)c1

- AC50 (Cytochrome P450 2C19; read-out: AC50): 1.58 µM (inconclusive)
- AC50 (Cytochrome P450 2C9): 1 µM (inconclusive)
Compound: Cc1ccc(C(=O)Nc2cccc(-c3cnc4ccccc4n3)c2)cc1

- AC50 (Cytochrome P450 1A2): 20 µM (inconclusive)
Compound: CC(C)C(=O)NCCn1ccc2ccccc21

- AC50 (Cytochrome P450 2C9): 0.794 µM (inconclusive)
Compound: c1cncc(CNc2ncncc2-c2ccc3c(c2)OCO3)c1

- AC50 (Cytochrome P450 2D6): 8.91 µM (inconclusive)
Compound: Cc1cccc(-c2nsc(SCC(=O)Nc3nccs3)n2)c1

- AC50 (Cytochrome P450 2C19; read-out: AC50): 3.16 µM (inconclusive)
- AC50 (Cytochrome P450 2C9): 0.631 µM (inconclusive)
Compound: Cc1cccc(CNc2nc(-c3c(C)noc3C)nc3ccccc23)c1

- AC50 (Cytochrome P450 2C19; read-out: AC50): 17.8 µM (inconclusive)
- AC50 (Cytochrome P450 1A2): 22.4 µM (inconclusive)
- AC50 (Cytochrome P450 2C9): 10 µM (inconclusive)
Compound: CC1(O)CC(=O)N(c2ccccc2)O1 (configuration not stated)

- AC50 (Cytochrome P450 2C19; read-out: AC50): 7.94 µM (inconclusive)
- AC50 (Cytochrome P450 2D6): 0.0355 µM (inconclusive)
- AC50 (Cytochrome P450 2C9): 1.78 µM (inconclusive)
Compound: Cc1ccc(-c2nnc(-c3ccccc3S(=O)(=O)Cc3ccc(Cl)cc3)o2)cc1

- AC50 (Cytochrome P450 2C19; read-out: AC50): 39.8 µM (inconclusive)
Compound: O=c1[nH]n(-c2cccc(Cl)c2)c2ncccc12

- AC50 (Cytochrome P450 2C19; read-out: AC50): 11.2 µM (inconclusive)
- AC50 (Cytochrome P450 2D6): 22.4 µM (inconclusive)
- AC50 (Cytochrome P450 2C9): 8.91 µM (inconclusive)
Compound: CCn1ccc(C(=O)Oc2ccc(Cl)cc2)n1

- AC50 (Cytochrome P450 2D6): 15.8 µM (inconclusive)
- AC50 (Cytochrome P450 1A2): 22.4 µM (inconclusive)
Compound: COC(=O)CNC(=O)CN1C(=O)N(c2ccc(Cl)cc2)C(N(O)C(=O)Nc2ccc(Cl)cc2)C1(C)C (configuration not stated)

- AC50 (Cytochrome P450 2C19; read-out: AC50): 20 µM (inconclusive)
- AC50 (Cytochrome P450 1A2): 14.1 µM (inconclusive)
- AC50 (Cytochrome P450 2C9): 8.91 µM (inconclusive)
Compound: O=C(Cn1cnc2c(oc3ccccc32)c1=O)NCc1ccco1

- AC50 (Cytochrome P450 1A2): 15.8 µM (inconclusive)
Compound: Cc1cnc(CNc2ncnc3ccc(-c4ccc(C(=O)N(C)C)cc4)cc23)cn1

- AC50 (Cytochrome P450 2C19; read-out: AC50): 5.01 µM (inconclusive)
- AC50 (Cytochrome P450 2D6): 3.98 µM (inconclusive)
- AC50 (Cytochrome P450 1A2): 3.16 µM (inconclusive)
Compound: NC(=O)[C@@H]1CCCN1Cc1ccc2c(c1)OCO2

- AC50 (Cytochrome P450 1A2): 25.1 µM (inconclusive)
Compound: O=C(c1cnccn1)N1CCC2(CCN(Cc3ccncc3)CC2)CC1

- AC50 (Cytochrome P450 2C19; read-out: AC50): 0.0224 µM (inconclusive)
Compound: CN(C)c1ccc(/C=C2/C(=O)N(c3ccc([N+](=O)[O-])cc3)N=C2N2CCOCC2)cc1

- AC50 (Cytochrome P450 2D6): 12.6 µM (inconclusive)
Compound: Cc1nc(NC(=O)c2ccccc2)sc1-c1csc(Nc2ccc(Cl)cc2Cl)n1

Further lines, the compound ahead of its results:

Compound: O=C(CN1CCC(c2nc3ccccc3s2)CC1)NCc1ccccc1
- EC50 [1]: 0.237 µM (active)
- EC50 [2]: > 60 µM (not active)

Compound: Cc1cc(C)n(-c2nc(NC(C)C)nc(NC(C)C)n2)n1
- AC50 (Cytochrome P450 2C19; read-out: AC50): 35.5 µM (inconclusive)

Compound: CCCCNC(=O)C1CC(=O)N(CCC(C)C)C1 (configuration not stated)
- AC50 (Cytochrome P450 2C19; read-out: AC50): 25.1 µM (inconclusive)

Compound: COc1ccc(OC)c2sc(N3CCN(C(=O)c4ccc([N+](=O)[O-])s4)CC3)nc12
- EC50 [1]: 1.8 µM (active)
- EC50 [2]: > 60 µM (not active)

Compound: CN1CCN(c2ncc3ncc(=O)n(CCC#N)c3n2)CC1
- AC50 (Cytochrome P450 2C19): inconclusive
- AC50 (Cytochrome P450 1A2): 31.6 µM (inconclusive)

Compound: Cc1nn(C(C)C(=O)NC2C(=O)N3C(C(=O)O)=C(CSc4nnnn4C)CSC23)cc1Cl (configuration not stated)
- EC50 (Streptococcus): 0.337 µM (active)
- EC50 [3]: 0.112 µM (active)

Compound: CC(C)c1cc(C(C)C)c(S(=O)(=O)N2c3ccccc3[C@@]3(Br)C[C@H]4C(=O)N[C@@H](Cc5ccccc5)C(=O)N4[C@@H]23)c(C(C)C)c1
- EC50 [1]: 2.08 µM (active)
- EC50 [2]: > 60 µM (not active)

Compound: CCOC(=O)c1cc(C#N)c(N2CCN(C)CC2)nc1-c1ccccc1
- EC50 [1]: 1.3 µM (active)
- EC50 [2]: > 60 µM (not active)

Compound: Cc1nc2cnc(N3CCN(C)CC3)nc2n(CCC#N)c1=O
- AC50 (Cytochrome P450 1A2): 12.6 µM (inconclusive)

Compound: Cc1oc(-c2ccccc2Cl)nc1CN1CCCCC1c1cccnc1 (configuration not stated)
- EC50 [1]: 1.2 µM (active)
- EC50 [2]: > 60 µM (inconclusive)

Compound: O=C(N1CCOCC1)N1CCN(c2ccccc2)CC1
- AC50 (Cytochrome P450 2C9): 4.47 µM (inconclusive)

Compound: COc1cc(C(=O)Nc2nc(-c3ccc(F)cc3)cs2)ccc1OCC(=O)N1CCOCC1
- EC50 [1]: 1.36 µM (active)
- EC50 [2]: > 60 µM (not active)

Compound: CCOC(=O)c1cccc(N2C(N)=NC(N)=NC2(C)C)c1
- EC50 (Streptococcus): 0.63 µM (active)
- EC50 [3]: 0.127 µM (active)
